According to article PMC8213057, “Targeting ALK2: An Open Science Approach to Developing Therapeutics for the Treatment of Diffuse Intrinsic Pontine Glioma” (Journal of Medicinal Chemistry, 2020):

How the values were obtained:
ZAK/MLTK = ZAK/MLTK (Homo sapiens, UniProt Q9NYL2); assay: 375-member kinase panel; type: biochemical; conditions: Run 1, Run 2; for % enzyme activity: 1 μM; for remaining activity at 1 µM: read-out: % enzyme activity, 1 μM
EPHB4 = molecular target: T1, EPHB4 (Homo sapiens, UniProt P54760); conditions: 1 μM; Run 1, Run 2
T1 sequence (P54760 16-987): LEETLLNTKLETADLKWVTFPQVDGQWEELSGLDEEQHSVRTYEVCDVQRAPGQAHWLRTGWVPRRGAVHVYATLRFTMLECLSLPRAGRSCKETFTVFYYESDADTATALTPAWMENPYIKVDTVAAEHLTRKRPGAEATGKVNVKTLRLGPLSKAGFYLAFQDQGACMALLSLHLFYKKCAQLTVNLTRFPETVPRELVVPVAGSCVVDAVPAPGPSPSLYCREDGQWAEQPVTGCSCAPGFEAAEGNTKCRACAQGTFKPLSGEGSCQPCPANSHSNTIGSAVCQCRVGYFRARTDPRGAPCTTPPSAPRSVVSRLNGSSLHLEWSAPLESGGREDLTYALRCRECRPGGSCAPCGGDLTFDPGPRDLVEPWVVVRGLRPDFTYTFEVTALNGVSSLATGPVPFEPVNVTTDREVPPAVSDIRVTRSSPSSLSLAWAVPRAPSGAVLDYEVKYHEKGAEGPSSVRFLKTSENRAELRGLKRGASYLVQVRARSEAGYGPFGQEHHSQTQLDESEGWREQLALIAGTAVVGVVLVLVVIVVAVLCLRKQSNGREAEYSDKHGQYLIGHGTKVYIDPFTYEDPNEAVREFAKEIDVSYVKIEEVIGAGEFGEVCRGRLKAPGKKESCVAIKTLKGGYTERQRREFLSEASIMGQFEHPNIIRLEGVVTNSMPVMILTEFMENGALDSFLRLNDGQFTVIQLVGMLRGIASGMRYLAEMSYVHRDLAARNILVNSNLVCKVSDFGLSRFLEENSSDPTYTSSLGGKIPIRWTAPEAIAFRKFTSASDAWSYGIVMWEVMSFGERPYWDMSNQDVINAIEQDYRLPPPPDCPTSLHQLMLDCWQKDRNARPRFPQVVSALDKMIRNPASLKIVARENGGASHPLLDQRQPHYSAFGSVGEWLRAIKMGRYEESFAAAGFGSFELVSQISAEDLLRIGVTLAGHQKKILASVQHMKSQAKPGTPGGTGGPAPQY

LATS2 = molecular target: T2, LATS2 (Homo sapiens, UniProt Q9NRM7); conditions: 1 μM; Run 1, Run 2
T2 sequence (Q9NRM7 1-1088): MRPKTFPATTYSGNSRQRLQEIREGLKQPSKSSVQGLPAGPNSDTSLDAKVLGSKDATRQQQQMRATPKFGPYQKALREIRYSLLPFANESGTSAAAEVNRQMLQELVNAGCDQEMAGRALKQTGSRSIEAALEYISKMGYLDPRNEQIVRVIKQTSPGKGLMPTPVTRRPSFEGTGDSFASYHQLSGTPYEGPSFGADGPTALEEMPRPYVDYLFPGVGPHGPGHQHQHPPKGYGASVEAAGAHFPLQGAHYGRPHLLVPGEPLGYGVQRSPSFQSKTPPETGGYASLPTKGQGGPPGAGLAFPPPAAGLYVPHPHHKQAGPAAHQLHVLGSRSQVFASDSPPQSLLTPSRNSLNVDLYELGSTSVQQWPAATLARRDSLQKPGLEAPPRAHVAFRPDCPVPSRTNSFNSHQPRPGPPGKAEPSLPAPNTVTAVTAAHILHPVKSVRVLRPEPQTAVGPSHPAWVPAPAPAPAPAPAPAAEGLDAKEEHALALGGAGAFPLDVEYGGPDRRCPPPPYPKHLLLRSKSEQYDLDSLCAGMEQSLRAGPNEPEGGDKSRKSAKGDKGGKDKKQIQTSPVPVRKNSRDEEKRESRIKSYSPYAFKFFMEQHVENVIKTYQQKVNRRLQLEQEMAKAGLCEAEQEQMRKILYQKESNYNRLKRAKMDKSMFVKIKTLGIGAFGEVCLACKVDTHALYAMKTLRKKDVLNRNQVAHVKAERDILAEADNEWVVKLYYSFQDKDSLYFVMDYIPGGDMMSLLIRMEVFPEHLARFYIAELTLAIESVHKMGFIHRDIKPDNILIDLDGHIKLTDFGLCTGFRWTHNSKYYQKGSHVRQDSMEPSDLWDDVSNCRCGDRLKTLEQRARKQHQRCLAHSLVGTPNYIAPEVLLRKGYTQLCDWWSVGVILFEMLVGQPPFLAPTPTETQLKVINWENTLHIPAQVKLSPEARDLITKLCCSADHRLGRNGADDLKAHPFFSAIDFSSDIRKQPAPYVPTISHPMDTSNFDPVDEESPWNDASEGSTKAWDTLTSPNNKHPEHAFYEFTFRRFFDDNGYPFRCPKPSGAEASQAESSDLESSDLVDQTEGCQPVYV

STK32B/YANK2 = STK32B/YANK2 (Homo sapiens, UniProt Q9NY57); conditions: 1 μM; Run 1, Run 2
CDK14/cyclin Y (PFTK1) = CDK14/cyclin Y (PFTK1) (Homo sapiens, UniProt O94921); assay: biochemical; conditions: read-out: % enzyme activity, 1 μM; Run 1, Run 2
PKG1b = molecular target: T3, PKG1b (Homo sapiens, UniProt Q13976); assay: biochemical; conditions: read-out: % enzyme activity, 1 μM; Run 1, Run 2
T3 sequence (Q13976 1-686 isoform Q13976-2): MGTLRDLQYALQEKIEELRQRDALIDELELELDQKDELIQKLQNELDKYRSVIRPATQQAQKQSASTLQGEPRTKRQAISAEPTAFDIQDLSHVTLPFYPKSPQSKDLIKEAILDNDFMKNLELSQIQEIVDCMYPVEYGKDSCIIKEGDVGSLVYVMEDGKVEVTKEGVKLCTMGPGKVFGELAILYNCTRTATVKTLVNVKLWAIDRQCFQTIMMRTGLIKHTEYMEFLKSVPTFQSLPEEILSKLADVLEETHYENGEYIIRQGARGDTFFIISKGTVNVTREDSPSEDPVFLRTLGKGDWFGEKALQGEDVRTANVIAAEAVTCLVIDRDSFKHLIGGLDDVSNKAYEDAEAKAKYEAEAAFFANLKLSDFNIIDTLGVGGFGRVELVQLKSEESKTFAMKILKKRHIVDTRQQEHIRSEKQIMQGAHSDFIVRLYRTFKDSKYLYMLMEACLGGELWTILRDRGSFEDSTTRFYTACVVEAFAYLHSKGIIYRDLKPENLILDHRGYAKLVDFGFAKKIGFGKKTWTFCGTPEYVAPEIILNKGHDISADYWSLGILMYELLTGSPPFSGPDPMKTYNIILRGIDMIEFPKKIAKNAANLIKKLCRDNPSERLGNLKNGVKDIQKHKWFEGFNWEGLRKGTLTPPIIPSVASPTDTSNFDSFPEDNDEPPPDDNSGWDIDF

SSTK/TSSK6 = SSTK/TSSK6 (Homo sapiens, UniProt Q9BXA6); assay: biochemical; conditions: read-out: % enzyme activity, 1 μM; Run 1, Run 2
Chain of SSTK/TSSK6 (Q9BXA6 whole entry): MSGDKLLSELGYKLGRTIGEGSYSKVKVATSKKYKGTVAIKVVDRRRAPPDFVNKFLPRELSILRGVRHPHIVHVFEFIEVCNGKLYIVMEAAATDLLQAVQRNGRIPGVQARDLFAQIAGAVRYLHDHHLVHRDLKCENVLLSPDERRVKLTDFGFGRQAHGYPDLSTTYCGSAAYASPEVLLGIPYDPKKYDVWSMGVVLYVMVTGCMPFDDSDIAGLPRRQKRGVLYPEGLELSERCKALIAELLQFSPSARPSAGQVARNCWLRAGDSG

Chain of ZAK/MLTK (Q9NYL2 whole entry): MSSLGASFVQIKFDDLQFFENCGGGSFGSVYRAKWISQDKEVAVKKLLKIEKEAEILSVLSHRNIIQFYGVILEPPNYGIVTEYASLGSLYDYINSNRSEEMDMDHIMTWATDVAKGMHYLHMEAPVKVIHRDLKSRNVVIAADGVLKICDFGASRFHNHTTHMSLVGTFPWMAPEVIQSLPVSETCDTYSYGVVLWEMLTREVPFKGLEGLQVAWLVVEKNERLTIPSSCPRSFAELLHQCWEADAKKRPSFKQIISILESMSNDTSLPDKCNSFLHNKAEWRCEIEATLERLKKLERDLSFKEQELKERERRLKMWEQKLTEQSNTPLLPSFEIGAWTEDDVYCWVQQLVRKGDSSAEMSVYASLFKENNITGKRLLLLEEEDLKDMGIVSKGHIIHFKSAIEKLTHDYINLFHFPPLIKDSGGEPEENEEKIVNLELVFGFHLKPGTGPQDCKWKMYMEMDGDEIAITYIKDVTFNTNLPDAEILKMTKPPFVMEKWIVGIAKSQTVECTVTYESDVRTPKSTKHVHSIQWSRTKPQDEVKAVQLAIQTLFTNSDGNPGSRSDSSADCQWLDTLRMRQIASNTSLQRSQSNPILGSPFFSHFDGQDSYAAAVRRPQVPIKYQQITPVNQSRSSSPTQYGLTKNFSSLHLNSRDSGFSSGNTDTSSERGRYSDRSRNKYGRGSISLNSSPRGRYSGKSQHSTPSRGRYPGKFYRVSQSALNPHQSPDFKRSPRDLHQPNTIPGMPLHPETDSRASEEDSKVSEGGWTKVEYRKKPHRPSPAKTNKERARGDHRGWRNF
Chain of STK32B/YANK2 (Q9NY57 whole entry): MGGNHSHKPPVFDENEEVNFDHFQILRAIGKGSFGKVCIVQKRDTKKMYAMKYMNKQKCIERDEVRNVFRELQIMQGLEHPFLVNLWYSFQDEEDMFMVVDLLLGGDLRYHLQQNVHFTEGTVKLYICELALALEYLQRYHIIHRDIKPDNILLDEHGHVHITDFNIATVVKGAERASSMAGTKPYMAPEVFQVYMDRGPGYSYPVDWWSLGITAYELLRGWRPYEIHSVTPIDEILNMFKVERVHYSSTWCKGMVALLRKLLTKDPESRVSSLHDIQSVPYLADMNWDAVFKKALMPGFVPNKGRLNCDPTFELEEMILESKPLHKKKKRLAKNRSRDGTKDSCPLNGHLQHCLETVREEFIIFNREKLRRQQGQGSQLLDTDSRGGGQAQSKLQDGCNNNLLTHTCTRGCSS
Chain of CDK14/cyclin Y (PFTK1) (O94921 whole entry): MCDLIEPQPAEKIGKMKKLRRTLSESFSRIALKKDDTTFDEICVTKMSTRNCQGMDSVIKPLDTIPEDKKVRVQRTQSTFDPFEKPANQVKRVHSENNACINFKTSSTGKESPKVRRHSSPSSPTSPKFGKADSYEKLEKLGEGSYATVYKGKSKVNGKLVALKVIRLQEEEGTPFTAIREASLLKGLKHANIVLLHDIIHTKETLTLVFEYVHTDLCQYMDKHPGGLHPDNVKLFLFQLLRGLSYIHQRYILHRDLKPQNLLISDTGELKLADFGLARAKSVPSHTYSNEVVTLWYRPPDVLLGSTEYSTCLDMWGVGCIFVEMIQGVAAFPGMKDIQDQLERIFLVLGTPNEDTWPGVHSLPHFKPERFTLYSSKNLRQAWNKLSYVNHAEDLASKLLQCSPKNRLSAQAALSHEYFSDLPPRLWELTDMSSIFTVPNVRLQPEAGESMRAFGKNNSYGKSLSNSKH
Chain of CDK14/cyclin Y (PFTK1) (Q8ND76 whole entry partner): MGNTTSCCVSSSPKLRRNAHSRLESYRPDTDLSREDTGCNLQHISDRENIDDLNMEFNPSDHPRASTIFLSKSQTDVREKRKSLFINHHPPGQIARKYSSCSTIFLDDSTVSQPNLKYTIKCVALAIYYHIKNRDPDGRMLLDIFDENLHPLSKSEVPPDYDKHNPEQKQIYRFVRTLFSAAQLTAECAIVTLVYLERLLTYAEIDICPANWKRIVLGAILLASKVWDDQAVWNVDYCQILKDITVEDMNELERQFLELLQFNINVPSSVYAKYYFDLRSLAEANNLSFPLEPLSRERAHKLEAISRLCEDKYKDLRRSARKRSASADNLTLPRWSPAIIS

Row | Structure (SMILES) | % enzyme activity (ZAK/MLTK) [%] | remaining activity at 1 µM (ZAK/MLTK) [%] | % enzyme activity (EPHB4) [%] | % enzyme activity (LATS2) [%] | % enzyme activity (STK32B/YANK2) [%] | remaining activity at 1 µM (CDK14/cyclin Y (PFTK1)) [%] | remaining activity at 1 µM (PKG1b) [%] | remaining activity at 1 µM (SSTK/TSSK6) [%]
1 | COc1cc(-c2cncc(-c3ccc(N4CCN(C)CC4)cc3)c2C)cc(F)c1C(N)=O [Compound 26a, 2-Fluoro-6-methoxy-4-(4-methyl-5-(4-(4-methylpiperazin-1-yl)phenyl)pyridin-3-yl)benzamide] | 30.86 | 31.3 | 93.42 | 104.67 | 87.20 | 98.4 | 102 | 110
2 | COc1cc(-c2cncc(-c3ccc(N4C[C@@H](C)N(C)[C@@H](C)C4)cc3)c2C)cc(F)c1C(N)=O [Compound 26c, 2-Fluoro-6-methoxy-4-(4-methyl-5-(4-((3R,5S)-3,4,5-trimethylpiperazin-1-yl)phenyl)pyridin-3-yl)benzamide] | 46.59 | 46.6 | 91.07 | 100.36 | 94.20 | 99.8 | 98.8 | 98.2
